Experimental data as given in publication PMC1971528, “Pharmacokinetic studies with the antifolate C2-desamino-C2-methyl-N10-propargyl-2'-trifluoromethyl-5,8-dideazafolic acid (CB3988) in mice and rats using in vivo 19F-NMR spectroscopy” (British Journal of Cancer, 1990).
Read-outs that look alike come from different tables or passages of the source.

Columns and labels:
[1] = mice, ref Newell et al., cited from earlier work
[2] = set-up: method as in Alison et al., 1985; Newell et al., 1986; conditions: patients; ref Alison et al., 1985; Newell et al., 1986; cited from earlier work
[3] = mice, 1986, cited from earlier work
[4] = qualitative statement, no reference given; cited from earlier work
[5] = In vivo 19F-NMR spectroscopy of CB3988 in mice; conditions: 500 mg kg-1 i.v.
From the text: (§1) Br. J. Cancer (1990), 62, 766 772 ? Macmillan Press Ltd., 1990 Pharmacokinetic studies with the antifolate C2-desamino-C2-methyl-N10-propargyl-2'-trifluoromethyl-5,8-dideazafolic acid (CB3988) in mice and rats using in vivo '9F-NMR spectroscopy D.R. Newell', R.J. Maxwell2, G.M.F. Bisset', D.I. Jodrell' & J.R. Griffiths2 'Drug Development Section, Institute of Cancer Research, Sutton, Surrey SM2 SNG; and 2CRC Biomedical NMR Group, St George's Hospital Medical School, Tooting, London SW] 7 ORE, UK. Summary In vivo '9F-NMR spectroscopy has been used to study the pharmacokinetics of the experimental antifolate drug CB3988 (C2-desamino-C2-methyl-N'0-propargyl-2'trifluoromethyl-5,8-dideazafolic acid) in mice and rats. NMR results have been compared to those obtained by HPLC and the effect of the inclusion of the CF3 group evaluated by comparing the pharmacokinetics of CB3988 and ICI 198583 (C2-desamino-C2-methyl- N'?-propargyl-5,8-dideazafolic acid) in rats. In mice, following the administration of CB3988 (500 mg kg-' i.v.), drug could be detected in both the upper and the lower abdomen. […] Signal detected in the lower abdomen reached maximum intensity 60-90 min after treatment. […] When the pharmacokinetics of CB3988 and ICI 198583 were compared the only significant difference was in the alpha phase half life which was 2-fold faster for CB3988. […] This is in contrast to N'?-propargyl-5,8-dideazafolic acid, where delayed excretion is associated with hepatic and renal toxicities. The ability to study CB3988 pharmacokinetics non-invasively by '9F-NMR spectroscopy confirms the utility of the technique and, since '9F-NMR can be applied directly to clinical investigations, it may be possible to obtain similar information in humans. It is now accepted that pharmacokinetics are an important determinant of both the activity and toxicity of anticancer drugs (Newell, 1989). This acceptance has led to the inclusion of pharmacokinetic studies in both the preclinical and early clinical evaluation of the majority of novel antitumour agents with two broad aims in mind. Firstly, the studies may be of direct clinical relevance in determining dose escalation during phase I studies (Collins et al., 1986; EORTC PAM Group, 1987) and secondly the information gained may be of value in interpreting both the toxicity and activity of the com- pound. This latter information can in turn be used to develop either new drugs or drug schedules which maximise the therapeutic potential of the agent. In order to conduct pharmacokinetic studies it is necessary to have a method which can accurately and selectively measure levels of the drug and its metabolites in biological fluids and tissues. Ideally the method should allow studies on drug levels in tumour deposits and in sensitive normal tissues since these are more likely to correlate with activity and toxicity than are levels in plasma or urine. In the preclinical setting such measurements are usually performed using radio- chemicals and either autoradiographic or quantitative tissue distribution studies (Siddik & Newell, 1988). However, in patients ethical and clinical considerations restrict the use of radioactive tracers and routine sampling of tumour or nor- mal tissue is not practicable. […] Using physiological pharmaco- kinetic modelling it is possible to extract some tissue distribu- tion information from such data although there is always considerable uncertainty attached to the results because of interpatient variation. […]

[6] = Quantitative tissue distribution of CB3988 in mice by HPLC; format: in vivo; conditions: 500 mg kg-1 i.v.
From the text: Br. J. Cancer (1990), 62, 766 772 ? Macmillan Press Ltd., 1990 Pharmacokinetic studies with the antifolate C2-desamino-C2-methyl-N10-propargyl-2'-trifluoromethyl-5,8-dideazafolic acid (CB3988) in mice and rats using in vivo '9F-NMR spectroscopy D.R. Newell', R.J. Maxwell2, G.M.F. Bisset', D.I. Jodrell' & J.R. Griffiths2 'Drug Development Section, Institute of Cancer Research, Sutton, Surrey SM2 SNG; and 2CRC Biomedical NMR Group, St George's Hospital Medical School, Tooting, London SW] 7 ORE, UK. Summary In vivo '9F-NMR spectroscopy has been used to study the pharmacokinetics of the experimental antifolate drug CB3988 (C2-desamino-C2-methyl-N'0-propargyl-2'trifluoromethyl-5,8-dideazafolic acid) in mice and rats. NMR results have been compared to those obtained by HPLC and the effect of the inclusion of the CF3 group evaluated by comparing the pharmacokinetics of CB3988 and ICI 198583 (C2-desamino-C2-methyl- N'?-propargyl-5,8-dideazafolic acid) in rats. In mice, following the administration of CB3988 (500 mg kg-' i.v.), drug could be detected in both the upper and the lower abdomen. […] Signal detected in the lower abdomen reached maximum intensity 60-90 min after treatment. […] When the pharmacokinetics of CB3988 and ICI 198583 were compared the only significant difference was in the alpha phase half life which was 2-fold faster for CB3988. […] This is in contrast to N'?-propargyl-5,8-dideazafolic acid, where delayed excretion is associated with hepatic and renal toxicities. The ability to study CB3988 pharmacokinetics non-invasively by '9F-NMR spectroscopy confirms the utility of the technique and, since '9F-NMR can be applied directly to clinical investigations, it may be possible to obtain similar information in humans. It is now accepted that pharmacokinetics are an important determinant of both the activity and toxicity of anticancer drugs (Newell, 1989). This acceptance has led to the inclusion of pharmacokinetic studies in both the preclinical and early clinical evaluation of the majority of novel antitumour agents with two broad aims in mind. Firstly, the studies may be of direct clinical relevance in determining dose escalation during phase I studies (Collins et al., 1986; EORTC PAM Group, 1987) and secondly the information gained may be of value in interpreting both the toxicity and activity of the com- pound. This latter information can in turn be used to develop either new drugs or drug schedules which maximise the therapeutic potential of the agent. […] In the preclinical setting such measurements are usually performed using radio- chemicals and either autoradiographic or quantitative tissue distribution studies (Siddik & Newell, 1988). […]

[7] = system: thymidylate synthase; set-up: method as in A.L. Jackman, unpublished results; conditions: ref A.L. Jackman, unpublished results; cited from earlier work
[8] = Plasma pharmacokinetics and biliary/urinary excretion in rats by HPLC; format: in vivo; conditions: 100 mg kg-1 i.v., CB3988 vs ICI 198583
From the text: (§2) Br. J. Cancer (1990), 62, 766 772 ? Macmillan Press Ltd., 1990 Pharmacokinetic studies with the antifolate C2-desamino-C2-methyl-N10-propargyl-2'-trifluoromethyl-5,8-dideazafolic acid (CB3988) in mice and rats using in vivo '9F-NMR spectroscopy D.R. Newell', R.J. Maxwell2, G.M.F. Bisset', D.I. Jodrell' & J.R. Griffiths2 'Drug Development Section, Institute of Cancer Research, Sutton, Surrey SM2 SNG; and 2CRC Biomedical NMR Group, St George's Hospital Medical School, Tooting, London SW] 7 ORE, UK. Summary In vivo '9F-NMR spectroscopy has been used to study the pharmacokinetics of the experimental antifolate drug CB3988 (C2-desamino-C2-methyl-N'0-propargyl-2'trifluoromethyl-5,8-dideazafolic acid) in mice and rats. NMR results have been compared to those obtained by HPLC and the effect of the inclusion of the CF3 group evaluated by comparing the pharmacokinetics of CB3988 and ICI 198583 (C2-desamino-C2-methyl- N'?-propargyl-5,8-dideazafolic acid) in rats. In mice, following the administration of CB3988 (500 mg kg-' i.v.), drug could be detected in both the upper and the lower abdomen. […] Signal detected in the lower abdomen reached maximum intensity 60-90 min after treatment. […] In the preclinical setting such measurements are usually performed using radio- chemicals and either autoradiographic or quantitative tissue distribution studies (Siddik & Newell, 1988). […]

[9] = In vivo 19F-NMR spectroscopy of CB3988 in rats; conditions: 100 mg kg-1 i.v.
From the text: as §1

[10] = Acute toxicity in rats; format: in vivo; conditions: 100 mg kg-1 i.v.
From the text: as §2

[11] = Acute toxicity in mice; format: in vivo; conditions: 500 mg kg-1 i.v.
From the text: as §2

[12] = cited from earlier work
[13] = set-up: method as in Newell et al., 1988; conditions: experimental systems; ref Newell et al., 1988; cited from earlier work
[14] = upper abdomen, cannulated and bile duct-intact

Q: For C#CCN(Cc1ccc2nc(N)[nH]c(=O)c2c1)c1ccc(C(=O)N[C@@H](CCC(=O)O)C(=O)O)cc1 [CB3717, N10-propargyl-5,8-dideazafolic acid], which “urinary excretion and persistence in kidney” value [1]; 1986 is on record?
A: delayed urinary excretion and drug still present in the kidney weeks after administration

Q: What about the nephrotoxicity [2] of the same compound?
A: nephrotoxic

Q: What about the nephrotoxicity ([3]; ref Alison et al., 1985, Newell et al.) of the same compound?
A: nephrotoxic

Q: And the hepatotoxicity ([3]; ref Newell et al.)?
A: hepatotoxic

Q: And the aqueous solubility [4]?
A: poor solubility

Q: With C#CCN(Cc1ccc2nc(C)[nH]c(=O)c2c1)c1ccc(C(=O)N[C@@H](CCC(=O)O)C(=O)O)c(C(F)(F)F)c1 [CB3988, C2-desamino-C2-methyl-N10-propargyl-2'trifluoromethyl-5,8-dideazafolic acid] as the compound, how does the “time by which urinary excretion is essentially complete” value ([5]; NMR signal in bladder) read?
A: ≤ 1 h

Q: And the “time at which NMR signal in the lower abdomen reached maximum intensity” value ([5]; lower abdomen)?
A: 60 to 90 min

Q: And the “metabolites (additional peaks) in NMR spectrum” value ([5]; upper abdomen)?
A: No clear evidence of the presence of additional peaks

Q: And the “time at which NMR signal from the upper abdomen reached maximum intensity” value ([5]; upper abdomen)?
A: 10 to 40 min

Q: What about the half-life ([5]; mouse, upper abdomen (in vivo NMR signal), iv, analysis period 40-120 min, mean ± s.d. of three mice, read-out: half life for the decline of NMR signal from the upper abdomen (overall mean)) of the same compound?
A: 28 min

Q: What about the “CB3988 concentration in bile and urine, molar” value [6] of the same compound?
A: 40 to 60 mM

Q: What about the “CB3988 concentration in liver and small intestines” value ([6]; 30 and 60 min) of the same compound?
A: > 1 mg g-1 wet weight

Q: What about the “CB3988 concentration in bile and urine (gall bladder and urinary bladder)” value ([6]; 30 and 60 min, HPLC) of the same compound?
A: 20 to 30 mg/mL

Q: What about the Conc. large intestine ([6]; 60 min, large intestine (ND)) of the same compound?
A: < 0.02 mg g-1 wet weight

Q: And the “reduction of inhibitory activity towards thymidylate synthase in comparison to ICI 198583” value [7]?
A: 7 fold

Q: And the “alpha phase half life, fold faster than ICI 198583” value [8]?
A: 2 fold

Q: And the “metabolites in NMR spectra” value ([9]; intact and cannulated bile ducts)?
A: no metabolites being detected

Q: What about the “time by which NMR signal reached the limit of detection” value ([9]; upper abdomen, bile duct cannulated) of the same compound?
A: 15 to 20 min

Q: And the “time after bolus dose at which NMR signal was detected” value [9, 14]?
A: up to 2 min

Q: What about the “time by which NMR signal intensity reached a maximum value” [9, 14] of the same compound?
A: ≤ 10 min

Q: And the half-life ([9]; rat, iv, upper abdomen, three bile duct cannulated rats, read-out: half-life for the decline in the NMR signal, individual rats)?
A: 5.6 min

Q: And the acute toxicity [10]?
A: no acute toxicity

Q: And the acute toxicity [11]?
A: no acute toxicity

Q: And the “reduction of cytotoxicity in comparison to ICI 198583” value ([12]; ref A.L. Jackman, unpublished results)?
A: 14 fold

Q: For C#CCN(Cc1ccc2nc(C)[nH]c(=O)c2c1)c1ccc(C(=O)N[C@@H](CCC(=O)O)C(=O)O)cc1 [ICI 198583, C2-desamino-C2-methyl-N10-propargyl-5,8-dideazafolic acid], which “retention in liver and kidney” value [1]; 1988 is on record?
A: not retained in either the liver or the kidney

Q: And the “acute liver and kidney toxicity” value [13]?
A: devoid of acute liver and kidney toxicity

Q: And the aqueous solubility [4]?
A: greatly enhanced aqueous solubility compared to CB3717

Q: And the “potency in cytotoxicity studies relative to CB3717” value ([12]; ref Hughes et al., 1988, Jackman et al.)?
A: markedly more potent than CB3717
